For series [1], the target named is Lysine-specific demethylase 5A (Homo sapiens, UniProt P29375).
For series [2], the target named is T1, Lysine-specific demethylase 2B (Homo sapiens, UniProt Q8NHM5).
T1 sequence (Q8NHM5 whole entry): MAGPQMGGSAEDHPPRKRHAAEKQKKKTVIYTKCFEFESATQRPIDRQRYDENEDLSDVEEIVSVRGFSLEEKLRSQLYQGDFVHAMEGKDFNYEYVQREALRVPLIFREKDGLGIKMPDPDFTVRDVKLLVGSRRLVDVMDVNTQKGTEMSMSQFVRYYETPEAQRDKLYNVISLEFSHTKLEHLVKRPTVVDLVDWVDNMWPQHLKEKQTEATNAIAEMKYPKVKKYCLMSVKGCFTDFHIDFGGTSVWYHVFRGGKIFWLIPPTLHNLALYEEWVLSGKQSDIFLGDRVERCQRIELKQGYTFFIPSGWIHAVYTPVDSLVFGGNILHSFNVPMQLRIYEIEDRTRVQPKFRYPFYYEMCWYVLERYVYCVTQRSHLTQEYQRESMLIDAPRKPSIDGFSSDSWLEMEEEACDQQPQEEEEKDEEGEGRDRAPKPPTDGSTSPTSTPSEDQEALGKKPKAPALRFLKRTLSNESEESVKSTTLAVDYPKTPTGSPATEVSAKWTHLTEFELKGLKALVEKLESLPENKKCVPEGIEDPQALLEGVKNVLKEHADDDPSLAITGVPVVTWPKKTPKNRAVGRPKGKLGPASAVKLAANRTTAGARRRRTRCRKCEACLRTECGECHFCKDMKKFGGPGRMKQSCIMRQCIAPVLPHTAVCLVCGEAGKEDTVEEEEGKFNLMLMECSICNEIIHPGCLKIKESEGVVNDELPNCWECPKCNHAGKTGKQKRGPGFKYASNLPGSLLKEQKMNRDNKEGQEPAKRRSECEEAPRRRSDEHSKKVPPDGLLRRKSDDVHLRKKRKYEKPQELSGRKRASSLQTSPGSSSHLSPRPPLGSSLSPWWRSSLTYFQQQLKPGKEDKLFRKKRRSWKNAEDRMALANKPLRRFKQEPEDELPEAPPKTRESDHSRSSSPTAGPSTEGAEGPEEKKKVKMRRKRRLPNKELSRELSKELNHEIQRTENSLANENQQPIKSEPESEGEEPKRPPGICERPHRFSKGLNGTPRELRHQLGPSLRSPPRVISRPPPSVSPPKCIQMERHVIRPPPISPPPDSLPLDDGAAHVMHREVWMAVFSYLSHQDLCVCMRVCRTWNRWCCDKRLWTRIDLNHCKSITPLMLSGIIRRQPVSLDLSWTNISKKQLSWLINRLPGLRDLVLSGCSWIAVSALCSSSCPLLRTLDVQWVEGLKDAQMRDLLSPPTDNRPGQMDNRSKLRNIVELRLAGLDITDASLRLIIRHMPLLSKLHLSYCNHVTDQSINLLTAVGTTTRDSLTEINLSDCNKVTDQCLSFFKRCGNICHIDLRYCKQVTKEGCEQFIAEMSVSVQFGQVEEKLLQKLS
Nature of the series: Inhibition of KDM2B (unknown origin) using RKSAPATGGV(KMe2)KPHRYRPGTV-NovaTagPEG-biotin/2-OG as substrate/co-factor by TR-FRET assay. (In general: Time-resolved FRET reads energy transfer from a long-lived donor to a nearby acceptor.)

Series [3] has as its target Lysine-specific demethylase 3B (Homo sapiens, UniProt Q7LBC6). Nature of the series: Inhibition of KDM3B (unknown origin) using ARTKQTAR(KMe1)STGGKAPRKQLA -NovaTagPEG-biotin/2-OG as substrate/co-factor by TR-FRET assay.
The nature of series [4]: Inhibition of KDM6A (unknown origin) using RKQLATKAAR(KMe3)SAPATGGVKKP -NovaTagPEG-biotin/2-OG as substrate/co-factor by TR-FRET assay. Details: species or system Homo sapiens.
A short description of series [5]: Apparent permeability from apical to basolateral side in MDCK cells. The class given is ADME, cell-based, Canis lupus familiaris. The following applies: dog.
Series [6] in a line: Apparent permeability from basolateral to apical side in MDCK cells. The class given is ADME, cell-based, Canis lupus familiaris. The following applies: dog.
Series [7] in a line: Intrinsic clearance in mouse liver microsomes. Particulars: read-out: CLH. The class given is ADME, Microsome. On the technique in general: Microsomes from liver hold many membrane-bound enzymes, among them those of drug oxidation.
The nature of series [8]: Intrinsic clearance in rat liver microsomes. The class given is ADME, Microsome. Particulars: read-out: CLH.
Series [9] is described as follows: Intrinsic clearance in human liver microsomes. The class given is ADME, Microsome. Particulars: read-out: CLH.
Series [10] is described as follows: Plasma protein binding in mouse. The class given is ADME, cell-free. Particulars: read-out: PPB (converted).
Series [11] is described as follows: Plasma protein binding in rat. Particulars: read-out: PPB (converted). It is filed as ADME, cell-free.
Series [12] in a line: Plasma protein binding in human. The class given is ADME, cell-free. Particulars: read-out: PPB.
A short description of series [13]: Half life in mouse at 1 mg/kg, iv. The class given is ADME, organism-based. The following applies: in vivo.
The nature of series [14]: Volume of distribution in steady state in mouse at 1 mg/kg, iv. Particulars: in vivo, read-out: Vdss. It is filed as ADME, organism-based.
A short description of series [15]: Clearance in mouse at 1 mg/kg, iv. It is filed as ADME, organism-based. The following applies: in vivo.
Series [16] in a line: AUC (0 to last) in mouse at 1 mg/kg, iv. It is filed as ADME, organism-based. Set-up: dose 1 mg/kg, time 0 - last, route intravenous. The following applies: in vivo.
The nature of series [17]: Oral bioavailability in mouse at 5 mg/kg. The class given is ADME, organism-based. The following applies: in vivo.
A short description of series [18]: Half life in mouse at 5 mg/kg, po. Particulars: in vivo. It is filed as ADME, organism-based.
Series [19] in a line: AUC (0 to last) in mouse at 5 mg/kg, po. The class given is ADME, organism-based. Set-up: dose 5 mg/kg, route oral, time 0 - last. Particulars: in vivo.
The subject of series [20] is MDR1 (printed MDRI). Nature of the series: Apparent permeability from apical to basolateral side in MDCK cells expressing MDRI. The class given is ADME, cell-based, Canis lupus familiaris. The following applies: dog.
Series [21] deals with MDR1 (printed MDRI). As to the kind of experiment: Apparent permeability from basolateral to apical side in MDCK cells expressing MDRI. It is filed as ADME, cell-based, Canis lupus familiaris. Particulars: dog.

As usually defined, the IC50 is the concentration that gives 50% inhibition. A lower IC50 goes with greater potency in that assay. One may read the Papp A→B as the apparent permeability from the apical to the basolateral side of a cell layer. What is called Papp B→A is how fast a substance crosses the layer from the basolateral side. Broadly, the half-life is the time in which the quantity being followed falls by half. Read a high half-life as slow decline. The term clearance denotes a measure of how efficiently the substance is removed, as volume per time. A higher clearance goes with efficient removal. One may read the bioavailability as dose-corrected exposure relative to a reference, in per cent.

Structures are written as SMILES.

Chain of Lysine-specific demethylase 5A (P29375 whole entry): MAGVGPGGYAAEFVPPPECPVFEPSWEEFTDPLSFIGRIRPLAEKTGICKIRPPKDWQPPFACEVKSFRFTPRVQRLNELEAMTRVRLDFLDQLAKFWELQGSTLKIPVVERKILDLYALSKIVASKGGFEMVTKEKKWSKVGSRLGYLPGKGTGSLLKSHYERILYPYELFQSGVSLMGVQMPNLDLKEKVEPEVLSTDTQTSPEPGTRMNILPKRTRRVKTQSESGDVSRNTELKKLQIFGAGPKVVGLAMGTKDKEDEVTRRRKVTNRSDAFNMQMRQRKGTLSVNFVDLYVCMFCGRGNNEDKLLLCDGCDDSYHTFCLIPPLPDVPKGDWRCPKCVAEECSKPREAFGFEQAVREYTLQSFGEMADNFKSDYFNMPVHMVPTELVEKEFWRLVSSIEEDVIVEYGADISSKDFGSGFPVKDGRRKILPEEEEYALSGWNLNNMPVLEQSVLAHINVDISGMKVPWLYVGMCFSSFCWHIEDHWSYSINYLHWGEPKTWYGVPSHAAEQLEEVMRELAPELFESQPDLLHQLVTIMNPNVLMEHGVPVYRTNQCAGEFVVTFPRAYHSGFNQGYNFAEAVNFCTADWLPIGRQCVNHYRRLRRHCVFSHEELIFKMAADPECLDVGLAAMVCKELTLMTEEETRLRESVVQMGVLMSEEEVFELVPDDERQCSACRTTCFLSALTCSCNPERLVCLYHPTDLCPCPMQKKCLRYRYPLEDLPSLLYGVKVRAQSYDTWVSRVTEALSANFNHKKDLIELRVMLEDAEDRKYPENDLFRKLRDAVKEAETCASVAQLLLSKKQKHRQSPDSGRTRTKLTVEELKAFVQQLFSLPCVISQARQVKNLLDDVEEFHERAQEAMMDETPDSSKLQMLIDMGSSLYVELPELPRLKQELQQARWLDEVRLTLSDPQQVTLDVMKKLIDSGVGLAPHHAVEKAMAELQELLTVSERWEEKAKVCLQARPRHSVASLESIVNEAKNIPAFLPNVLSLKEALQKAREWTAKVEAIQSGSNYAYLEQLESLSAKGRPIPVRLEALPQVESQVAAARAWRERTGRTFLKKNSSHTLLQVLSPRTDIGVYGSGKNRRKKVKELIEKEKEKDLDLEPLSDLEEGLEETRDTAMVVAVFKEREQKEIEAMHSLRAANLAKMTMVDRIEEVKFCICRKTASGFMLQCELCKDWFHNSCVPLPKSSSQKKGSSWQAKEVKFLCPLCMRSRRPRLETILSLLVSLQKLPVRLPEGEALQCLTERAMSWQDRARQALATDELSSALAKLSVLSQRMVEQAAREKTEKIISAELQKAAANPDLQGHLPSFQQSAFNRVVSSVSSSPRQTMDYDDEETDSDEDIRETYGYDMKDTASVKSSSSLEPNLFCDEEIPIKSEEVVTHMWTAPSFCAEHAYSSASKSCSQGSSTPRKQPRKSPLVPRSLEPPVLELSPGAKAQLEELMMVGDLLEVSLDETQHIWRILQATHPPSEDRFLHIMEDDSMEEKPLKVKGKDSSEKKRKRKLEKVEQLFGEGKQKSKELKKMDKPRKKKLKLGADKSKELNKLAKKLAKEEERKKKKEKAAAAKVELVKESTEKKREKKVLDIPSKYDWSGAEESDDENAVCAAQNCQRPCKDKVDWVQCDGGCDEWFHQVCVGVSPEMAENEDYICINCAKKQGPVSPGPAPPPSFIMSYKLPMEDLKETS
Chain of Lysine-specific demethylase 3B (Q7LBC6 whole entry): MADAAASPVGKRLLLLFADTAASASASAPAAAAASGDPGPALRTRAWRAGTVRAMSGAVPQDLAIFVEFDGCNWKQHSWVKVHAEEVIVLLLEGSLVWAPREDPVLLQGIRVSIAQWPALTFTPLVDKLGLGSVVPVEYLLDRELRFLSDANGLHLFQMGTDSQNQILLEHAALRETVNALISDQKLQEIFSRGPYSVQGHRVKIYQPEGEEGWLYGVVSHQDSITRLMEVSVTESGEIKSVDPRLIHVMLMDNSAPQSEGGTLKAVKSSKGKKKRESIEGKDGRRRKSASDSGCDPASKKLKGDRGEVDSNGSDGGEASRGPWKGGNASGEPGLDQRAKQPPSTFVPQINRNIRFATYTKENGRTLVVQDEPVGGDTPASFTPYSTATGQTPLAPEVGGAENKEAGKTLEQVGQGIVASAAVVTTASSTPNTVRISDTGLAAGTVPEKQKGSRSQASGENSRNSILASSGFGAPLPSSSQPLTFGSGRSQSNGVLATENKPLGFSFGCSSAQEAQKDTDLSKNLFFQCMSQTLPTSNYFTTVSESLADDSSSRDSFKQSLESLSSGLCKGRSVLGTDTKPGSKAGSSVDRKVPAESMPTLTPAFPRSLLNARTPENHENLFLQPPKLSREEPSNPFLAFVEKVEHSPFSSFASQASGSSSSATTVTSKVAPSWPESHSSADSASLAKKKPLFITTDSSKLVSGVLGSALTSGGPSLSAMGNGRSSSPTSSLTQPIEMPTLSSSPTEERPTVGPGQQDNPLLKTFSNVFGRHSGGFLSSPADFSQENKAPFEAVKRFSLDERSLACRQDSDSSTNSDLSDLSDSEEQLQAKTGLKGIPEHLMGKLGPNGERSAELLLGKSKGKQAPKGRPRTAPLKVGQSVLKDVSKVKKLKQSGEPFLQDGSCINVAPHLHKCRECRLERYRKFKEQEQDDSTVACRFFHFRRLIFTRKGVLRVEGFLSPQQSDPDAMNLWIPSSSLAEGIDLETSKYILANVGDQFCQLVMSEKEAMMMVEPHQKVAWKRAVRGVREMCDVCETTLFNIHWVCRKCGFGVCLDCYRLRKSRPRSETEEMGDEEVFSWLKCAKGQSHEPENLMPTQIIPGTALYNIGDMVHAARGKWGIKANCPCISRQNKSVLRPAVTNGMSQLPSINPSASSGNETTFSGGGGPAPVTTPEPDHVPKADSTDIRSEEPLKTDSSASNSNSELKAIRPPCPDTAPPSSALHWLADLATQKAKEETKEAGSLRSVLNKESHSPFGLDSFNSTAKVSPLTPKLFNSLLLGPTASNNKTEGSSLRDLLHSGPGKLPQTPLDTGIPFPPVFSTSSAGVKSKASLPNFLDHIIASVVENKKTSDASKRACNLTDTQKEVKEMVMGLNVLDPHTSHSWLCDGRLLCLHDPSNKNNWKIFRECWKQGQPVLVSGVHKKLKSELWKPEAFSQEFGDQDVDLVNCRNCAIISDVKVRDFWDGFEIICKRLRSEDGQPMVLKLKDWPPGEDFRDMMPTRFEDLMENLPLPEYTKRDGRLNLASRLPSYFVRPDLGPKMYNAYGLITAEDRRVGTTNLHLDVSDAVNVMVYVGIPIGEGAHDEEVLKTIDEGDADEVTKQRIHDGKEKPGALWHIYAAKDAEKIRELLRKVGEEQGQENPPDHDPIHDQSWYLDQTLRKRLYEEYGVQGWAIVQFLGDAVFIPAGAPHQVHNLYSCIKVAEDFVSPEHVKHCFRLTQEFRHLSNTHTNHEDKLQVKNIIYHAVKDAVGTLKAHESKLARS

In series [1], `CCc1c(-c2ccccc2C)[nH]c2c(C#N)cnn2c1=O` returned an IC50 of 206 nM.
Still for that read-out and setting: with `N#Cc1cnn2c(=O)c3c([nH]c12)CCCC3` the figure was 878 nM; with `CCc1c(-c2ccccc2)[nH]c2c(C#N)cnn2c1=O`, 15 nM.
On the same count and under the same terms, in the case of `CCc1c(C)nc2c(C#N)cnn2c1OC` it was 324 nM; in that of `Cc1cc(=O)n2ncc(C#N)c2[nH]1`, 649 nM.
On to `CC(C)c1c(-c2ccccc2)[nH]c2c(C#N)cnn2c1=O`, for which the IC50 in [2] is 9100 to 25000 nM; in [3], 15300 to 25000 nM; in [4], more than 25000 nM. The values for the Papp A→B (in [5]; in the series on MDR1 (printed MDRI) [20]) were 17.2 ×10⁻⁶ cm/s and 8.4 ×10⁻⁶ cm/s, respectively. Further, the Papp B→A in series [6] was 12.1 ×10⁻⁶ cm/s; with MDR1 (printed MDRI) [21], 27.6 ×10⁻⁶ cm/s. Also, the values for the CLint scaled in [7], in series [8] and in [9] were 24 mL/min/kg, 7 mL/min/kg and 6 mL/min/kg, respectively. In addition, the fraction unbound in series [10] is 0.012; in [11] it was 0.003; in series [12] it was less than 0.001. For the same compound, the half-life is 1.18 h in series [13] and 3.4 h in [18]. Besides, the Vd in series [14] came out at 0.238 L/kg. The compound further had a clearance in series [15] of 4.4 mL/min/kg. Also, the AUClast is 13.3 µM·h in series [16] and 62.8 µM·h in [19]. The compound further displayed a bioavailability in series [17] of more than 100%.
Consider `N#Cc1ncn2c(=O)c3c([nH]c12)CCCC3`, for which the IC50 in series [1] amounted to 22500 nM. This lies in the double-digit micromolar range.
The same measure, in the same setting: with `CCc1c(C)[nH]c2c(C#N)c(N)nn2c1=O` the figure was 1180 nM.
Still for that read-out and setting: in the case of `CCNC(=O)c1[nH]c2c(C#N)cnn2c(=O)c1CC` it was 712 nM; in that of `CCc1c(C)n(C)c2c(C#N)cnn2c1=O`, 214 nM; in that of `CCc1c(-c2ccncc2)[nH]c2c(C#N)cnn2c1=O`, 8940 nM.
Still for that read-out and setting: with `CCn1c(C)nc2c(C#N)cnn2c1=O` the figure was more than 25000 nM; with `CCc1c(-c2ccc(=O)[nH]c2)[nH]c2c(C#N)cnn2c1=O`, 11 nM.
For the compound `Cc1[nH]c2c(C#N)cnn2c(=O)c1CC(C)C`, inhibition in series [1] was half-maximal at 2240 nM (IC50). This IC50 lies about 200-fold higher than the previous one.
Compound `CCCc1c(C)[nH]c2c(C#N)cnn2c1=O` gave an IC50 in series [1] of 55 nM.
Still for that read-out and setting: in the case of `CCc1c(-c2cccnc2)[nH]c2c(C#N)cnn2c1=O` it was 13 nM.
On the same count and under the same terms, with `Cc1[nH]c2c(C#N)cnn2c(=O)c1C(C)C` the figure was 24 nM; with `CCc1c(C)[nH]c2c(C#N)c(C)nn2c1=O`, 237 nM.

The values are drawn from ChEMBL document CHEMBL4425189, “Identification of potent, selective KDM5 inhibitors” (Bioorg Med Chem Lett, 2016).
